# Key:
# Assay type in all cases: functional
# Escherichia coli [1] = assay: Antibacterial activity against Escherichia coli infected in mouse
# Pseudomonas aeruginosa [2] = assay: Antibacterial activity against Pseudomonas aeruginosa ATCC 27853
# Staphylococcus aureus [3] = assay: Antibacterial activity against Staphylococcus aureus ATCC 25923
# Escherichia coli [4] = assay: Antibacterial activity against Escherichia coli ATCC 25922
# Staphylococcus aureus [5] = assay: Antibacterial activity against Staphylococcus aureus ATCC 29213
# Escherichia coli [6] = assay: Antibacterial activity against Escherichia coli
# Enterococcus faecalis = assay: Antibacterial activity against Enterococcus faecalis
# Acinetobacter baumannii = assay: Antibacterial activity against Acinetobacter baumannii
# Pseudomonas aeruginosa [7] = assay: Antibacterial activity against Pseudomonas aeruginosa
# Klebsiella pneumoniae = assay: Antibacterial activity against Klebsiella pneumoniae
# Staphylococcus aureus [8] = assay: Antibacterial activity against methicillin-resistant Staphylococcus aureus N315
# Streptococcus pyogenes = assay: Antibacterial activity against Streptococcus pyogenes
# Staphylococcus aureus [9] = assay: Antibacterial activity against Staphylococcus aureus
# Staphylococcus aureus [10] = assay: Antibacterial activity against Staphylococcus aureus ATCC 25923 after 24 hrs by NCCLS method; conditions: ATCC 25923, 24 h
# Bacillus subtilis = assay: Antibacterial activity against Bacillus subtilis ATCC 530 after 24 hrs by NCCLS method; conditions: ATCC 530, 24 h
# Escherichia coli [11] = assay: Antibacterial activity against Escherichia coli ATCC 25922 after 24 hrs by NCCLS method; conditions: ATCC 25922, 24 h
# Pseudomonas aeruginosa [12] = assay: Antibacterial activity against Pseudomonas aeruginosa ATCC 27853 after 24 hrs by NCCLS method; conditions: ATCC 27853, 24 h
# Klebsiella aerogenes = assay: Antibacterial activity against Klebsiella aerogenes
# Helicobacter pylori [13] = assay: Antibacterial activity against Helicobacter pylori
# Helicobacter pylori [14] = assay: Antibacterial activity against Helicobacter pylori NCTC 11637
smiles,measurement,setting,value
CCOC(=O)c1cn(CC)c2cc(N3CCN(CCn4c([N+](=O)[O-])cnc4C)CC3)c(F)cc2c1=O,ED50,Escherichia coli [1],3.5 to 13.2 mg/kg
NC1CCN(c2c(F)cc3c(=O)c(C(=O)O)cn(C4CC4)c3c2Cl)C1 (configuration not stated) [CLINAFLOXACIN],MIC,Pseudomonas aeruginosa [2],5 to 88 µM
same,MIC,Staphylococcus aureus [3],5 to 88 µM
same,MIC,Escherichia coli [4],5 to 88 µM
same,MIC,Staphylococcus aureus [5],5 to 88 µM
same,MIC,Escherichia coli [6],5 to 88 µM
same,MIC,Enterococcus faecalis,5 to 88 µM
same,MIC,Acinetobacter baumannii,5 to 88 µM
same,MIC,Pseudomonas aeruginosa [7],5 to 88 µM
same,MIC,Klebsiella pneumoniae,5 to 88 µM
same,MIC,Staphylococcus aureus [8],5 to 88 µM
COC(=O)c1cn(C2CC2)c2cc(N3CCN(CCn4c([N+](=O)[O-])cnc4C)CC3)c(F)cc2c1=O,ED50,Escherichia coli [1],3.5 to 13.2 mg/kg
CCn1cc(C(=O)OC)c(=O)c2cc(F)c(N3CCN(CCn4c([N+](=O)[O-])cnc4C)CC3)nc21,ED50,Escherichia coli [1],3.5 to 13.2 mg/kg
Cc1cc([N+](=O)[O-])ccc1NCn1nc(Cn2cc([N+](=O)[O-])nc2C)oc1=S,MIC,Streptococcus pyogenes,184 to 2890 µM
same,MIC,Staphylococcus aureus [9],184 to 2890 µM
CCc1ccc(NCn2nc(Cn3cc([N+](=O)[O-])nc3C)oc2=S)cc1,MIC,Streptococcus pyogenes,184 to 2890 µM
same,MIC,Staphylococcus aureus [9],184 to 2890 µM
CCN1CCN(c2ccc3c4c(cccc24)C(=O)N(CC(O)Cn2c([N+](=O)[O-])cnc2C)C3=O)CC1 (configuration not stated),MIC,Pseudomonas aeruginosa [2],13 to 1020 µM
same,MIC,Staphylococcus aureus [3],13 to 1020 µM
same,MIC,Escherichia coli [4],13 to 1020 µM
same,MIC,Staphylococcus aureus [5],13 to 1020 µM
same,MIC,Escherichia coli [6],13 to 1020 µM
same,MIC,Enterococcus faecalis,13 to 1020 µM
same,MIC,Acinetobacter baumannii,13 to 1020 µM
same,MIC,Pseudomonas aeruginosa [7],13 to 1020 µM
same,MIC,Klebsiella pneumoniae,13 to 1020 µM
same,MIC,Staphylococcus aureus [8],13 to 1020 µM
Cc1nc([N+](=O)[O-])cn1Cc1nn(CNc2ccc(F)cc2)c(=S)o1,MIC,Streptococcus pyogenes,184 to 2890 µM
same,MIC,Staphylococcus aureus [9],184 to 2890 µM
Cc1nn(-c2ccccc2)c(Oc2ccc(Cl)cc2)c1/C=N/NC(=O)Cn1c([N+](=O)[O-])cnc1C,MIC,Staphylococcus aureus [10],3.12 to 50 µg/mL
same,MIC,Bacillus subtilis,3.12 to 50 µg/mL
same,MIC,Escherichia coli [11],3.12 to 50 µg/mL
same,MIC,Pseudomonas aeruginosa [12],3.12 to 50 µg/mL
CCCCCCCCCCN1CCN(c2ccc3c4c(cccc24)C(=O)N(CC(O)Cn2c([N+](=O)[O-])cnc2C)C3=O)CC1 (configuration not stated),MIC,Pseudomonas aeruginosa [2],13 to 210 µM
same,MIC,Staphylococcus aureus [3],13 to 210 µM
same,MIC,Escherichia coli [4],13 to 210 µM
same,MIC,Klebsiella aerogenes,13 µM
same,MIC,Staphylococcus aureus [5],13 to 210 µM
same,MIC,Escherichia coli [6],13 to 210 µM
same,MIC,Enterococcus faecalis,13 to 210 µM
same,MIC,Acinetobacter baumannii,13 to 210 µM
same,MIC,Pseudomonas aeruginosa [7],13 to 210 µM
same,MIC,Klebsiella pneumoniae,13 to 210 µM
same,MIC,Staphylococcus aureus [8],13 to 210 µM
Cc1ncc([N+](=O)[O-])n1CCN1CCN(c2cc3c(cc2F)c(=O)c(C(=O)O)cn3C2CC2)CC1,ED50,Escherichia coli [1],2.56 to 3.88 mg/kg
Cc1ncc([N+](=O)[O-])n1CCNCc1nonc1C(N)=O,MIC90,Helicobacter pylori [13],0.5 to 32 µg/mL
same,MIC90,Helicobacter pylori [14],0.5 to 32 µg/mL
